Assay results as given in ChEMBL document CHEMBL1146179, “Desosamine in multicomponent reactions” (Bioorg Med Chem Lett, 2006).
The source made the active and inactive calls.

How the values were obtained:
Type in all cases: functional, organism-based
[1] = tested on: Escherichia coli; assay: Antibacterial activity against Escherichia coli at 50 mM
[2] = tested on: Escherichia coli; assay: Antibacterial activity against Escherichia coli at 400 mM
[3] = tested on: Staphylococcus aureus; assay: Antibacterial activity against Staphylococcus aureus ATCC 6538 at 400 mM
[4] = tested on: Candida albicans; assay: Antifungal activity against Candida albicans ATCC 10231 at 400 mM
[5] = tested on: Bacillus subtilis; assay: Antibacterial activity against Bacillus subtilis at 50 mM
[6] = tested on: Candida albicans; assay: Antifungal activity against Candida albicans ATCC 10231 at 50 mM
[7] = tested on: Staphylococcus aureus; assay: Antibacterial activity against Staphylococcus aureus ATCC 6538 at 100 mM
[8] = tested on: Bacillus subtilis; assay: Antibacterial activity against Bacillus subtilis at 100 mM
[9] = tested on: Bacillus subtilis; assay: Antibacterial activity against Bacillus subtilis at 400 mM
[10] = tested on: Staphylococcus aureus; assay: Antibacterial activity against Staphylococcus aureus ATCC 6538 at 50 mM
[11] = tested on: Escherichia coli; assay: Antibacterial activity against Escherichia coli at 100 mM
[12] = tested on: Candida albicans; assay: Antifungal activity against Candida albicans ATCC 10231 at 100 mM

Measured: Activity

C[C@@H]1C[C@H](N(C)C)[C@@H](O)C(NCc2nnnn2C(C)(C)C)O1 (some centres undefined)
inactive: all assays above

COC(=O)Cn1nnnc1C(NC1O[C@H](C)C[C@H](N(C)C)[C@H]1O)c1ccccc1 (some centres undefined)
inactive: all assays above
